Measurements published in US20240140957A1, “BRIDGED COMPOUNDS AS KRAS G12D INHIBITOR AND DEGRADER AND THE USE THEREOF” (BeiGene Switzerland GmbH, priority 2021, published 2024).
Read-outs that look alike come from different tables or passages of the source.

Key:
[1] = biological target: T1, KRAS G12D protein in AsPC-1 cells (Homo sapiens, UniProt P01116, G12D); assay: Western Blotting Assay in AsPC-1 cells; type: cell-based; details: 48 h compound treatment, concentration 3 uM
T1 construct: endogenous in cells; host or cells: AsPC-1
Protocol: AsPC-1 cell line was used in this study. […] 400000 AsPC-1 cells per well in 1 mL culture medium were seed in the 12-well plate for 4 hours. Cells were treated with an appropriate dilution series of compounds. After 48 h compound treatment, medium was aspirated, the cells were washed with PBS, and then 30 μL of 1× protein lysis buffer (Cell Signaling Technology) containing protease inhibitors (Merck) and phosphatase inhibitors (Sigma) was added. The cells were lysed, and after centrifugation, the supernatants were quantified by BCA Protein assay Kit (Thermo Fisher). 4× loading Buffer (Thermo Fisher) was added to equal amounts of total protein from each sample and heated at 95° C. for 5 minutes. […] of cell lysates were loaded onto a 12% NuPAGE Bis-Tris Gel (Thermo Fisher), electro-transferred to NC membranes (Thermo Fisher), The membranes were blocked at least 1 hour with Blocking reagent (LI-COR), and then incubated overnight with anti-KRAS (LSBio, LS-C175665) or pERK (Cell Signaling Technology, 4370L) antibodies and as loading control anti-β-actin (Cell Signaling Technology, 3700S) or anti-GAPDH (Cell Signaling Technology, 97166S) at 4° C. with gentle shaking. The membranes were washed three times with TBST, and incubated at least 1 hour at room temperature with anti-mouse or anti-Rabbit secondary fluorescent antibody (Thermo Fisher, A32729; LI-COR, 926-32213). […]

[2] = biological target: KRAS G12D:SOS1 (Homo sapiens, UniProt P01116, G12D); assay: KRAS G12D:SOS1 GDP TR-FRET assay; type: binding; details: GST-KRAS G12D 37.5 nM, GDP 10 μM, His-SOS1 18 nM
[3] = biological target: WT KRAS:SOS1 (Homo sapiens, UniProt P01116); assay: KRAS WT:SOS1 GDP TR-FRET assay; type: binding; details: GST-WT KRAS 37.5 nM, GDP 10 μM, His-SOS1 18 nM
[4] = biological target: GDP-loaded KRAS G12D (Homo sapiens, UniProt P01116, G12D); assay: KRAS G12D Probe Displacement Assay; type: binding
[5] = biological target: GDP-loaded WT KRAS (Homo sapiens, UniProt P01116); assay: KRAS WT Probe Displacement Assay; type: binding
[6] = system: pERK1/2 (THR202/TYR204) in AsPC-1 cells; assay: pERK Assay (HTRF) in AsPC-1 cells; type: cell-based; details: Homo sapiens, ASPC1, 2 h compound treatment
[7] = KRAS G12D 0.5 nM, biotinylated probe 2 4 nM, read-out: KRAS G12D Probe Displacement Assay IC50
[8] = WT KRAS 3 nM, biotinylated probe 1 60 nM, read-out: KRAS WT Probe Displacement Assay IC50

Compound	KRAS G12D protein level decrease [1]	IC50 [2]	IC50 [3]	IC50 [4]	IC50 [5]	IC50 [6]	IC50 [4, 7]	IC50 [5, 8]
Cc1ncsc1-c1ccc([C@H](C)NC(=O)[C@@H]2C[C@@H](O)CN2C(=O)[C@@H](NC(=O)COC2CCN(CC(C)Oc3nc(N4CC5CCC(C4)N5)c4cc(Cl)c(-c5ccc(F)c6sc(N)nc56)c(F)c4n3)CC2)C(C)(C)C)cc1 (stereo partly drawn) [Example E44, (2S,4R)-1-((2S)-2-(2-((1-(2-((7-(2-amino-7-fluorobenzo[d]thiazol-4-yl)-4-(3,8-diazabicyclo[3.2.1]octan-3-yl)-6-chloro-8-fluoroquinazolin-2-yl)oxy)propyl)piperidin-4-yl)oxy)acetamido)-3,3-dimethylbutanoyl)-4-hydroxy-N—((S)-1-(4-(4-methylthiazol-5-yl)phenyl)ethyl)pyrrolidine-2-carboxamide]	70%							
Cc1cc(N)nc(-c2c(Cl)cc3c(N4CC5CCC(C4)N5)nc(OC[C@@]45CCCN4C[C@H](F)C5)nc3c2F)c1C(F)(F)F [Example E49, 6-(4-(3,8-diazabicyclo[3.2.1]octan-3-yl)-6-chloro-8-fluoro-2-(((2R,7aS)-2-fluorotetrahydro-1H-pyrrolizin-7a(5H)-yl)methoxy)quinazolin-7-yl)-4-methyl-5-(trifluoromethyl)pyridin-2-amine]		4.8 nM	35 nM	3.1 nM	49 nM	84 nM		
Cc1cc(N)nc(-c2c(Cl)cc3c(N4CC5CCC(C4)N5)nc(O[C@@H](C)CN4CCCCC4)nc3c2F)c1C(F)(F)F [Example E35, 6-(4-(3,8-diazabicyclo[3.2.1]octan-3-yl)-6-chloro-8-fluoro-2-(((S)-1-(piperidin-1-yl)propan-2-yl)oxy)quinazolin-7-yl)-4-methyl-5-(trifluoromethyl)pyridin-2-amine]		22 nM	3300 nM			4350 nM	130 nM	7300 nM
CC1CCCC(C)N1C[C@H](C)Oc1nc(N2CC3CCC(C2)N3)c2cc(Cl)c(-c3ccc(F)c4sc(N)nc34)c(F)c2n1 (stereo partly shown) [Example E38]		12 nM	804 nM			1310 nM	32 nM	1400 nM
